According to ChEMBL document CHEMBL1201862, “PubChem BioAssay data set” (2004):
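Following 48 hours of exposure in 96-well plates, responses at five concentrations were used to interpolate endpoints linearly. Abbreviation: GI50, concentration required for 50% inhibition of growth.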 The source made the active and inactive calls. Cut-off read from the data, not from the text of the source: active = GI50 up to about 1.1 µM and inactive = higher.

What was measured:
Assay in all cases: NCI-60 cell line screen, 48 h
[1] = tested on: RXF 393
[2] = tested on: NCI/ADR-RES
[3] = tested on: RPMI-8226
[4] = tested on: COLO 205
[5] = tested on: MCF7
[6] = tested on: M14
[7] = tested on: OVCAR-3
[8] = tested on: SNB-75
[9] = tested on: EKVX
[10] = tested on: LOX IMVI
[11] = tested on: HT-29
[12] = tested on: 786-0
[13] = tested on: MDA-MB-435
[14] = tested on: U-251
[15] = tested on: SW-620
[16] = tested on: OVCAR-8
[17] = tested on: IGROV-1
[18] = tested on: HCC 2998
[19] = tested on: HOP-92

SMILES | GI50 [1] | GI50 [2] | GI50 [3] | GI50 [4] | GI50 [5] | GI50 [6] | GI50 [7] | GI50 [8] | GI50 [9] | GI50 [10] | GI50 [11] | GI50 [12] | GI50 [13] | GI50 [14] | GI50 [15] | GI50 [16] | GI50 [17] | GI50 [18] | GI50 [19]
O=C(O)C1C2CCC(O2)C1C(=O)NCc1cccnc1 (stereo not drawn) | > 100 µM (inactive) | > 100 µM (inactive) | > 100 µM (inactive) | > 100 µM (inactive) | > 100 µM (inactive) | > 100 µM (inactive) | > 100 µM (inactive) | > 100 µM (inactive) | > 100 µM (inactive) | > 100 µM (inactive) | > 100 µM (inactive) | > 100 µM (inactive) | > 100 µM (inactive) | > 100 µM (inactive) | > 100 µM (inactive) |  |  |  | 
CCOC(=O)c1c(NS(=O)(=O)c2ccccc2)sc2c1CCCC2 | > 100 µM (inactive) | 62.1 µM (inactive) | 26.9 µM (inactive) | 44.4 µM (inactive) | 46.7 µM (inactive) | 81.3 µM (inactive) | 22.5 µM (inactive) | > 100 µM (inactive) | 48.4 µM (inactive) |  | 39.4 µM (inactive) | 80.5 µM (inactive) |  |  |  | 56.8 µM (inactive) | 54.8 µM (inactive) |  | 
O=C1CN(c2cccc(Cl)c2)C(=O)CN1CCN1CC(=O)N(c2cccc(Cl)c2)CC1=O | > 100 µM (inactive) |  | > 100 µM (inactive) | > 100 µM (inactive) | > 100 µM (inactive) | > 100 µM (inactive) | > 100 µM (inactive) | > 100 µM (inactive) | > 100 µM (inactive) |  | > 100 µM (inactive) | > 100 µM (inactive) | > 100 µM (inactive) | > 100 µM (inactive) | > 100 µM (inactive) | > 100 µM (inactive) | > 100 µM (inactive) | > 100 µM (inactive) | > 100 µM (inactive)
COC(=O)C1C=CN(N(C)C)C2=C1C(=O)c1c(O)cccc1C2=O (stereo not drawn) | 2.79 µM (inactive) | 2.22 µM (inactive) | 0.887 µM (active) | 1.5 µM (inactive) | 1.95 µM (inactive) | 1.69 µM (inactive) | 0.625 µM (active) | 1.66 µM (inactive) | 2.79 µM (inactive) |  | 1.49 µM (inactive) | 2.62 µM (inactive) | 0.429 µM (active) | 3.29 µM (inactive) | 2.28 µM (inactive) | 2.67 µM (inactive) | 2.1 µM (inactive) | 1.93 µM (inactive) | 
CCOC(=O)C1(C)CCc2sc(N)c(C#N)c21 (stereo not drawn) | > 100 µM (inactive) |  | > 100 µM (inactive) | > 100 µM (inactive) | > 100 µM (inactive) | > 100 µM (inactive) |  | > 100 µM (inactive) | > 100 µM (inactive) |  | > 100 µM (inactive) | > 100 µM (inactive) |  | > 100 µM (inactive) | > 100 µM (inactive) | > 100 µM (inactive) | > 100 µM (inactive) | > 100 µM (inactive) | > 100 µM (inactive)
CN(/N=C/c1ccccc1O)c1ccc2ccccc2n1 | 30.8 µM (inactive) | 22.4 µM (inactive) | 35.6 µM (inactive) | 56.1 µM (inactive) | 2.61 µM (inactive) | 27.1 µM (inactive) | 19.5 µM (inactive) |  | 19.8 µM (inactive) | 30.8 µM (inactive) | 29.8 µM (inactive) | 17.7 µM (inactive) | 44.4 µM (inactive) | 16.3 µM (inactive) | 42.3 µM (inactive) | 33.8 µM (inactive) | 11.3 µM (inactive) |  | 35.3 µM (inactive)
CC(=O)n1[nH]c(=O)n(-c2ccccc2)c1=O | > 100 µM (inactive) | > 100 µM (inactive) | > 100 µM (inactive) | > 100 µM (inactive) | > 100 µM (inactive) | > 100 µM (inactive) | > 100 µM (inactive) |  | > 100 µM (inactive) | > 100 µM (inactive) | > 100 µM (inactive) | > 100 µM (inactive) | > 100 µM (inactive) | > 100 µM (inactive) | > 100 µM (inactive) | > 100 µM (inactive) | > 100 µM (inactive) | > 100 µM (inactive) | 
C=C1CC[C@]2(C)[C@H](CC[C@@]34C[C@@H](CC[C@H]32)[C@@H](C(=O)O)C4)C1(C)C | > 12.5 µM (inactive) | > 12.5 µM (inactive) |  | 4.54 µM (inactive) | > 12.5 µM (inactive) | > 12.5 µM (inactive) | > 12.5 µM (inactive) |  | > 12.5 µM (inactive) | > 12.5 µM (inactive) | 5.35 µM (inactive) | 7.83 µM (inactive) | > 12.5 µM (inactive) | > 12.5 µM (inactive) | > 12.5 µM (inactive) | > 12.5 µM (inactive) | > 12.5 µM (inactive) |  | 5.5 µM (inactive)
CCOC(=O)c1cnc2oc3ccc(O)cc3c2c1-c1ccccc1 | 41.1 µM (inactive) |  | 8.73 µM (inactive) | 28.5 µM (inactive) | 44.7 µM (inactive) | 81.3 µM (inactive) | > 100 µM (inactive) |  | 57.3 µM (inactive) | 21.6 µM (inactive) | 71.6 µM (inactive) | 58.3 µM (inactive) | 19.2 µM (inactive) | 44.8 µM (inactive) | > 100 µM (inactive) | 12.7 µM (inactive) |  | > 100 µM (inactive) | 16.3 µM (inactive)
CC(C)(Br)C(Br)CCC1(C(Br)CBr)CO1 (stereo not drawn) | > 10 µM (inactive) |  | > 10 µM (inactive) | > 10 µM (inactive) | > 10 µM (inactive) | > 10 µM (inactive) | > 10 µM (inactive) | > 10 µM (inactive) | > 10 µM (inactive) |  | > 10 µM (inactive) | > 10 µM (inactive) | > 10 µM (inactive) | > 10 µM (inactive) | > 10 µM (inactive) | > 10 µM (inactive) | > 10 µM (inactive) | > 10 µM (inactive) | > 10 µM (inactive)
COc1cc(COC(=O)N2CSCC2C(=O)O)c([N+](=O)[O-])cc1OC (stereo not drawn) |  | > 100 µM (inactive) | > 100 µM (inactive) |  | > 100 µM (inactive) | > 100 µM (inactive) | > 100 µM (inactive) | > 100 µM (inactive) | > 100 µM (inactive) |  | > 100 µM (inactive) | > 100 µM (inactive) | > 100 µM (inactive) | > 100 µM (inactive) | > 100 µM (inactive) | > 100 µM (inactive) | > 100 µM (inactive) | > 100 µM (inactive) | > 100 µM (inactive)
CCN=C=NCCCN(C)C | > 100 µM (inactive) | > 100 µM (inactive) | > 100 µM (inactive) | > 100 µM (inactive) | > 100 µM (inactive) | > 100 µM (inactive) | > 100 µM (inactive) | > 100 µM (inactive) | > 100 µM (inactive) | > 100 µM (inactive) | > 100 µM (inactive) | > 100 µM (inactive) | > 100 µM (inactive) | > 100 µM (inactive) | > 100 µM (inactive) | > 100 µM (inactive) | > 100 µM (inactive) |  | > 100 µM (inactive)
C=C(C)[C@@H]1CC[C@]2(COC(C)=O)CC[C@]3(C)[C@H](CC[C@@H]4[C@@]5(C)CC[C@H](OC(C)=O)C(C)(C)[C@@H]5CC[C@]43C)[C@@H]12 [BETULIN DIACETATE] | 0.0385 µM (active) | > 50 µM (inactive) | > 50 µM (inactive) | > 50 µM (inactive) |  | > 50 µM (inactive) | 3.01 µM (inactive) | > 50 µM (inactive) |  | > 50 µM (inactive) | > 50 µM (inactive) | > 50 µM (inactive) | > 50 µM (inactive) | > 50 µM (inactive) | > 50 µM (inactive) | > 50 µM (inactive) | > 50 µM (inactive) | 0.857 µM (active) | > 31.6 µM (inactive)
CC(=O)c1c(O)cc(O)c(-c2c(C)cc(O)c3c2C(=O)c2cccc(O)c2C3=O)c1O |  | 15.8 µM (inactive) | 7.76 µM (inactive) |  | 14.8 µM (inactive) | 20.3 µM (inactive) | 17.6 µM (inactive) | 15.2 µM (inactive) | 16.1 µM (inactive) | 12.8 µM (inactive) | 17.1 µM (inactive) | 17.1 µM (inactive) | 16.7 µM (inactive) | 14 µM (inactive) | 18.7 µM (inactive) | 14.7 µM (inactive) | 11.6 µM (inactive) |  | 11.8 µM (inactive)
CSc1scc2c1/C(=N/NC(N)=O)CCC2 |  | 20.1 µM (inactive) | 88.1 µM (inactive) | > 100 µM (inactive) | 90.4 µM (inactive) | > 100 µM (inactive) | > 100 µM (inactive) | 36.7 µM (inactive) |  | > 100 µM (inactive) | > 100 µM (inactive) | > 100 µM (inactive) | 52.8 µM (inactive) | > 100 µM (inactive) | > 100 µM (inactive) | > 100 µM (inactive) |  | > 100 µM (inactive) | 2.34 µM (inactive)
CCOC(=O)CC(=O)N(c1ccc(OC)cc1)C(C(=O)OC)c1ccccc1 (stereo not drawn) |  | > 100 µM (inactive) | > 100 µM (inactive) | > 100 µM (inactive) | > 100 µM (inactive) | > 100 µM (inactive) | > 100 µM (inactive) | 61 µM (inactive) | > 100 µM (inactive) | > 100 µM (inactive) | > 100 µM (inactive) | > 100 µM (inactive) | > 100 µM (inactive) |  | > 100 µM (inactive) | > 100 µM (inactive) | > 100 µM (inactive) |  | 
